# In patent US20030148925A1, “Insulin formulation for inhalation” (priority 2000, published 2003):
# Settings: dog, in vivo
AUC Normalised (Relative %),AUC Normalised (relative to the subcutaneous dose of 1.5 units) [uU.min/ml],AUC Per Dose [uU.min/ml],rank of AUC following normalisation to the doses administered,Substance
(17.0) %,495,2355,highest AUC,20% Zinc Insulin in Trehalose [Formulation D]
(6.4) %,188,625,–,95% Zinc Insulin in Trehalose [Formulation C]
(100) %,2916,2916,–,Humulin S [Formulation E]
(8.0) %,234,773,–,Insulin Without Zinc [Formulation B]
(4.2) %,123,657,–,Zinc Insulin [Formulation A]
